According to ChEMBL document CHEMBL1135292, “A practical synthesis of (S) 3-tert-butoxycarbonylamino-2-oxo-2,3,4,5-tetrahydro-1,5-benzodiazepine-1-acetic acid methyl ester as a conformationally restricted dipeptido-mimetic for caspase-1 (ICE) inhibitors” (Bioorg Med Chem Lett, 2002):

Tests used:
[1] = target: T1, Caspase-1 (Homo sapiens, UniProt P29466); experiment: Compound was tested for inhibitory activity against IL-1 beta converting enzyme
T1 sequence (P29466 whole entry): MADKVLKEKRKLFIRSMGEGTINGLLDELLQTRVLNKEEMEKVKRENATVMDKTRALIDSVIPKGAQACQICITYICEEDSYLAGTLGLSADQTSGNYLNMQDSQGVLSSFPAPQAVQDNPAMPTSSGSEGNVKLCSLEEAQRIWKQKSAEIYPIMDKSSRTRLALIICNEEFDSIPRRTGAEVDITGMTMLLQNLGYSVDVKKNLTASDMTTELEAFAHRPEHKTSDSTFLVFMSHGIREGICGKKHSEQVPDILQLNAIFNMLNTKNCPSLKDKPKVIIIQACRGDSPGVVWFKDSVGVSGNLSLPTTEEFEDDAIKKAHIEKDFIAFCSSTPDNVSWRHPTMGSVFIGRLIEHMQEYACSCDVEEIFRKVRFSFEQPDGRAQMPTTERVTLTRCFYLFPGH

[2] = species on record: Homo sapiens; experiment: Ability to block the release of interleukin-1 beta from human whole blood stimulated with heat-killed staphylococcus aureus; assay type: functional, organism-based

| SMILES | Ki [1] | IC50 [2] |
| --- | --- | --- |
| O=C(CN1C(=O)[C@@H](NC(=O)c2ccccc2)CN(C(=O)CCc2ccccc2)c2ccccc21)N[C@H]1CC(=O)OC1O (some centres not stated) | 0.09 µM | – |
| CC(=O)N[C@@H](Cc1ccc(O)cc1)C(=O)N[C@H](C(=O)N[C@@H](C)C(=O)N[C@H]1CC(=O)OC1O)C(C)C (some centres not stated) | – | 4 µM |
